{"source": "patent US12303468B2", "about": "“Compositions comprising one or more (bio)-alkanediols with antioxidants” (Symrise AG, priority 2020, dated 2025)", "key": {"[1]": {"test": "Oxipres test (induction period, product protection)", "format": "physicochemical", "settings": "for antioxidative boosting (prolonged induction time, less rancidity and reduced acid value), in words: alkanediol in combination with antioxidant (tocopherol) in sunflower oil", "protocol": "To evaluate the influence of 1,2-alkanediols or of 2,3-alkanediols on the antioxidative capacity of antioxidants, two different tests were performed: • (1) Oxipres treatment to simulate product protection; and • (2) Evaluation of reactive oxygen species (ROS) for skin protection.\nThe following tests were performed with sunflower oil +/− antioxidant and +/− alkanediols. […] Treating it with heat and oxygen triggers and accelerates oxidation easily.\nAn Oxipres test was performed in order to evaluate the antioxidative capacity of different test samples as described below.\nTest procedure: For the evaluation of the antioxidative capacity of the above-described samples, an Oxipres test was conducted. The Oxipres method is bases on oxygen consumption at high temperatures and pressures and allows the determination of oxidative resistance (shelf life) of e.g. oils. The test runs under elevated pressure and temperature, where the process is accelerated. In the Oxipres test the sample is placed inside a hermetically closed iron vessel that is subjected to high oxygen pressures and temperatures of 90 to 120° C. […] The consumption of oxygen results in a pressure drop in the vessel during the test. Higher decrease of pressure indicates more consumption of oxygen and higher oxidation of the test product. Oils with a high degree of unsaturation are most susceptible to autoxidation.\nIn the test, the antioxidants are oxidized preferentially before the oxidizable fat or oil is oxidized. Thus, the antioxidants protect the fat or oil against oxidation. After this there is a sudden and large consumption of oxygen and the fat becomes rancid. This can be defined by the induction period (IP) in hours. A lower IP correlates with a faster oxidation.\nEquipment: The tests were performed with an Oxipres device ex Mikrolab. The instrument is a modification of the bomb method (ASTM D941), which is based on oxidation with oxygen."}, "[2]": {"system": "reactive oxygen species (ROS) on ex vivo skin", "test": "DCF assay on ex vivo skin biopsies, aqueous/alcoholic (ethanolic) test samples", "format": "cell-based", "settings": "only the vehicle and the alkanediol, no antioxidant", "quoted_text": "A dichlorofluorescein test (DCF) assay was performed in order to determine the amount of reactive oxygen species (ROS) on ex vivo skin treated with different test samples in a lipophilic or an aqueous/alcoholic system as described below.\nDCF assay—assay principle: Ex vivo skin was incubated with 2′,7′-dichlorodihydrofluorescein diacetate at 37° C., 5% CO2. After PBS washing, samples were exposed or not to cumene hydroperoxide. Immediately after exposure, ex vivo skin samples were frozen in liquid nitrogen and 5 μm cryostat sections were made and fixed with acetone to allow the visualisation of fluorescence generated by ROS in cells of the reconstructed skins. […] Green fluorescence was quantified in ex vivo skin using ImageJ software. The depth of immunostaining was measured as follows: green DCFH-DE positive cells were automatically detected using Histolab software and the distance between dermal epidermal junction and the deepest positive cells were measured in each condition. Means were compared using a student's test. […]\nThe image acquisition was performed by using Olympus BX51 microscope and Olympus DP70 camera. For each skin sample two skin sections have been taken and the related fluorescent images acquired and analyzed. Thus, for each test condition, 12 images have been acquired and analyzed (i.e. 12 data). The analysis of fluorescence has been performed within the dermis area. […]"}, "[3]": {"test": "Solubility of alkanediols in water", "format": "physicochemical", "settings": "visual assessment at ambient temperature after 24 h storage at 5° C.", "description": "The water solubility of a substance is the saturation mass concentration of the substance in water at a given temperature. The determination of the solubility in water relates to essentially pure substances which are stable in water and not volatile. The determination of the water solubility of the alkanediols is further described in the following Example 7.\nFor the determination of the maximum water solubility of an alkanediol. water and different concentrations of the respective alkanediol were blended by stirring. […] The determination of whether the alkanediol has dissolved in water is based entirely on visual observation."}, "[4]": {"system": "reactive oxygen species (ROS) on monolayer cells", "test": "DCF assay on monolayer cells (2D)", "format": "cell-based", "settings": "300 μM H2O2, Untreated = 100", "protocol": "A dichlorofluorescein test (DCF) assay was performed in order to determine the amount of reactive oxygen species (ROS) on monolayer cells with different test samples as described below.\nDCF assay—assay principle (2D): One procedure to quantify intracellular radicals in a cell model is by using the dichlorofluorescein (DCF) assay. […] By intracellular esterases and oxidation, the nonfluorescent H2DCFDA is converted to the highly fluorescent 2′,7′-dichlorofluorescein (DCF). The nonfluorescent fluorescein (2′,7′-dichlorofluorescein diacetate (DCFH-DA)) passes the cell membranes. In the cytoplasm, it is cleaved by intracellular esterases and cannot leave the cell in this form. The oxidation by intracellularly existing ROS (reactive oxygen species) modifies the molecule so that will become DCF and emits fluorescence. ROS stimulation is done by exposure to 300 μM H2O2 for 1 h.\nThe determination of the anti-oxidative capacity is performed in 96-well microplates from Nunc (Wiesbaden, Germany) and with the microplate reader “Spark” from Tecan (Crailsheim, Germany). Cells are seeded in a black 96 well microplate with transparent bottom and incubated at 37° C. After 24 h the supernatant is decanted and fresh media with 0.1% FBS is added. Further 24 hours later the supernatant is decanted again and the test samples are added and incubated for 24 h. As a positive control Trolox is always co-tested. 300 μM H2O2 is used as ROS source (1 h exposure) The emitted fluorescence is measured from bottom of well at EX/EM 485/528 nm.\nThe antioxidative capacity is expressed as relative reduction of the stimulated control, which can be determined by rule of proportion in combination with the control."}, "[5]": {"system": "IL-8 produced and secreted by HaCaT cells", "test": "Interleukin 8 (IL-8) ELISA", "format": "cell-based, human", "settings": "IL 1-alpha stimulated", "protocol": "Interleukin 8 (IL-8) is increased by various kinds of stress including UV and oxidant stress, which thereby cause the recruitment of inflammatory cells and induces further increase in oxidant stress mediators, making it a key parameter in localized inflammation.\nAn IL-8 ELISA (enzyme lined immunosorbance assay) was performed in order to determine IL-8 produced and secreted by cells from the cell supernatant utilizing antibodies detecting the IL-8.\nExperimental procedure: HaCaT cells (spontaneously transformed aneuploid immortal keratinocyte cell line from adult human skin) were seeded in a black 96 well microplate with transparent bottom and incubated at 37° C. After 24 hours the supernatant is decanted and the test samples (100 μl/well) are added and incubated for 24 hours at 37° C. Then IL 1-alpha (1 ng/ml per 100 μl/well) was added as stimulant. Then the medium was changed (100 μl/well) and incubated at 37° C. After 4 h a 70 μl sample was recovered from the cell supernatant. Thereafter, an IL-8 ELISA is carried out with the cell supernatant sample.\nThe lower the IL-8 concentration the better the […] effect of the antioxidant of the sample."}, "[6]": {"settings": "in combination with Ascorbyl Palmitate in sunflower oil"}, "[7]": {"settings": "in combination with Hydroxyacetophenone in sunflower oil"}}, "note": "Several values for one entry are separate records, joined by “and”; a condition that tells them apart may be missing. Equal values may be shown once.", "data": [{"compound": "CCCC(O)C(C)O", "note": "(stereo not shown) [2,3-hexanediol]", "values": [{"measurement": "induction period, in words", "setting": "[1]; sunflower oil, tocopherol series (samples 1-43), versus comparative samples of the series", "result": "prolonged induction periods"}]}, {"compound": "CCCCCCCCC(O)CO", "note": "(stereo not shown) [1,2-decanediol]", "values": [{"measurement": "antioxidative boosting (prolonged induction time, less rancidity and reduced acid value), in words", "setting": "[1]", "result": "distinguished efficacy for antioxidative boosting"}]}, {"compound": "CCCCC(O)C(C)O", "note": "(stereo not shown) [2,3-heptanediol]", "values": [{"measurement": "induction period, in words", "setting": "[1]; [6]", "result": "remarkably prolonged induction periods"}, {"measurement": "induction period, in words", "setting": "[1]; [7]", "result": "remarkably prolonged induction periods"}, {"measurement": "antioxidative efficacy, in words", "setting": "[2]", "result": "do not have an antioxidative efficacy"}, {"measurement": "Maximum solubility in water", "setting": "[3]", "result": 3.6, "unit": "% by weight"}]}, {"compound": "CCCCC(O)CO", "note": "(stereo not shown) [Hydrolite ® 6]", "values": [{"measurement": "Maximum solubility in water", "setting": "[3]", "result": 50, "unit": "% by weight"}]}, {"compound": "CC1=C(/C=C/C(C)=C/C=C/C(C)=C/C(=O)OCC(=O)C(C)(C)C)C(C)(C)CCC1", "note": "[Hydroxypinacolone Retinoate]", "values": [{"measurement": "Mean, ROS concentration (%)", "setting": "[4]; 5 μM + 500 μM", "result": 53, "unit": "%"}]}, {"compound": "CCCCCCC(O)C(C)O", "note": "(stereo not shown) [2,3-nonanediol]", "values": [{"measurement": "Maximum solubility in water", "setting": "[3]", "result": 0.3, "unit": "% by weight"}]}, {"compound": "CCCCCC(O)CO", "note": "(stereo not shown) [1,2-heptanediol]", "values": [{"measurement": "antioxidative boosting (prolonged induction time, less rancidity and reduced acid value), in words", "setting": "[1]", "result": "distinguished efficacy for antioxidative boosting"}, {"measurement": "induction period, in words", "setting": "[1]; [6]", "result": "remarkably prolonged induction periods"}, {"measurement": "induction period, in words", "setting": "[1]; [7]", "result": "remarkably prolonged induction periods"}, {"measurement": "antioxidative efficacy, in words", "setting": "[2]", "result": "do not have an antioxidative efficacy"}, {"measurement": "Mean, ROS concentration (%)", "setting": "[4]; 500 μM", "result": 112, "unit": "%"}, {"measurement": "IL-8 concentration", "setting": "[5]; 500 μM", "result": "959.8 pg/mL and 959.85 pg/mL"}, {"measurement": "Maximum solubility in water", "setting": "[3]", "result": 2.5, "unit": "% by weight"}]}, {"compound": "CCCCCCCC(O)CO", "note": "(stereo not shown) [1,2-nonediol, 1,2-nonanediol]", "values": [{"measurement": "antioxidative boosting (prolonged induction time, less rancidity and reduced acid value), in words", "setting": "[1]", "result": "distinguished efficacy for antioxidative boosting"}, {"measurement": "Maximum solubility in water", "setting": "[3]", "result": 0.1, "unit": "% by weight"}]}, {"compound": "CCCCCC(O)C(C)O", "note": "(stereo not shown) [2,3-octanediol]", "values": [{"measurement": "antioxidative boosting (prolonged induction time, less rancidity and reduced acid value), in words", "setting": "[1]", "result": "distinguished efficacy for antioxidative boosting"}, {"measurement": "Mean, ROS concentration (%)", "setting": "[4]; 500 μM", "result": 98, "unit": "%"}, {"measurement": "Maximum solubility in water", "setting": "[3]", "result": 1.5, "unit": "% by weight"}]}, {"compound": "N=C(N)NCCC[C@H](NC(=O)C[C@H](N)C(=O)O)C(=O)O", "note": "[beta-aspartyl arginine]", "values": [{"measurement": "Mean, ROS concentration (%)", "setting": "[4]; 10000 μM", "result": 103, "unit": "%"}]}, {"compound": "CC1=C(/C=C/C(C)=C/C=C/C(C)=C/CO)C(C)(C)CCC1", "note": "[all trans-Retinol, reference compound]", "values": [{"measurement": "Mean, ROS concentration (%)", "setting": "[4]; 50 μM", "result": 100, "unit": "%"}, {"measurement": "IL-8 concentration", "setting": "[5]; 50 μM", "result": "670.8 pg/mL and 670.84 pg/mL"}]}, {"compound": "Cc1c(C)c2c(c(C)c1O)CC[C@@](C)(CCC[C@H](C)CCC[C@H](C)CCCC(C)C)O2", "note": "[alpha-Tocopherol]", "values": [{"measurement": "Mean, ROS concentration (%)", "setting": "[4]; 50 μM", "result": 45, "unit": "%"}, {"measurement": "Mean, ROS concentration (%)", "setting": "[4]; 100 μM", "result": 58, "unit": "%"}]}, {"compound": "CCCCCCC(O)CO", "note": "(stereo not shown) [Hydrolite ® 8]", "values": [{"measurement": "Maximum solubility in water", "setting": "[3]", "result": 0.5, "unit": "% by weight"}]}, {"compound": "NCCC(=O)N[C@@H](Cc1cnc[nH]1)C(=O)O", "note": "[Carnosine]", "values": [{"measurement": "Mean, ROS concentration (%)", "setting": "[4]; 10 mM", "result": 96, "unit": "%"}]}]}
